Biological target: Aβ42 (Homo sapiens, UniProt P05067)
Assay: Th-T (thioflavin-T) assay of Aβ42 aggregation
Assay type: biochemical
Conditions: for Th-T fluorescence, mean of three wells: Aβ42 aggregation time course

Chain of Aβ42 (P05067 672-713): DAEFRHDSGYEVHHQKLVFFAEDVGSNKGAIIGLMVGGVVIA

In the case of `C=C1CC[C@@H]2[C@](C)(CC[C@H]3O[C@H](C=C(C)C)C[C@@]23C)[C@@H]1Cc1c(OC)oc(CO)c(C)c1=O` [Compound 20], the “delay of the nucleation phase” value is reported as “no delay”, the “elongation of Aβ42” value is reported as “partly suppressed the elongation of Aβ42” and the “first Th-T assay result” value (Aβ42 (10 μM) ± DPPs (20 μM), room temperature) is reported as “slightly suppressed”. For the same compound, the “Th-T fluorescence, mean of three wells” value (reading M117) was 4.214, the “Th-T fluorescence, mean of three wells” value (reading M118) was 4.194 and the “Th-T fluorescence, mean of three wells” value (reading M119) was 4.178. For the same compound, the “Th-T fluorescence, mean of three wells” value (reading M120) was 4.1845, the “Th-T fluorescence, mean of three wells” value (reading M121) was 4.166 and the “Th-T fluorescence, mean of three wells” value (reading M122) was 4.139. For the same compound, the “Th-T fluorescence, mean of three wells” value (reading M123) was 4.16, the “Th-T fluorescence, mean of three wells” value (reading M124) was 4.194 and the “Th-T fluorescence, mean of three wells” value (reading M125) was 4.155. For the same compound, the “Th-T fluorescence, mean of three wells” value (reading M126) was 4.13, the “Th-T fluorescence, mean of three wells” value (reading M127) was 4.172 and the “Th-T fluorescence, mean of three wells” value (reading M128) was 4.137. For the same compound, the “Th-T fluorescence, mean of three wells” value (reading M129) was 4.1254, the “Th-T fluorescence, mean of three wells” value (reading M130) was 4.128 and the “Th-T fluorescence, mean of three wells (Fig. 7a)” value (from here on “Th-T fluorescence … (Fig. 7a)”) (column suffix _10, measurement M19) was 3.317. The “Th-T fluorescence … (Fig. 7a)” value (column suffix _10, measurement M20) was 3.391, the “Th-T fluorescence … (Fig. 7a)” value (column suffix _10, measurement M21) was 3.434 and the “Th-T fluorescence … (Fig. 7a)” value (column suffix _10, measurement M22) was 3.448. For the same compound, the “Th-T fluorescence … (Fig. 7a)” value (column suffix _10, measurement M23) was 3.464, the “Th-T fluorescence … (Fig. 7a)” value (column suffix _10, measurement M24) was 3.465 and the “Th-T fluorescence … (Fig. 7a)” value (column suffix _10, measurement M25) was 3.454. The “Th-T fluorescence … (Fig. 7a)” value (column suffix _10, measurement M26) was 3.452, the “Th-T fluorescence … (Fig. 7a)” value (column suffix _10, measurement M27) was 3.468 and the “Th-T fluorescence … (Fig. 7a)” value (column suffix _10, measurement M28) was 3.469. For the same compound, the “Th-T fluorescence … (Fig. 7a)” value (column suffix _10, measurement M29) was 3.45, the “Th-T assay signal, mean of three wells (Fig. 7a)” value (“Th-T assay signal, mean” below) (column suffix _10, reading M1) was 0.2292 and the “Th-T assay signal, mean” value (column suffix _10, reading M2) was 0.2545. The “Th-T assay signal, mean” value (column suffix _10, reading M3) was 0.2762, the “Th-T assay signal, mean” value (column suffix _10, reading M4) was 0.324 and the “Th-T assay signal, mean” value (column suffix _10, reading M5) was 0.3535. The “Th-T assay signal, mean” value (column suffix _10, reading M6) was 0.4731, the “Th-T assay signal, mean” value (column suffix _10, reading M7) was 0.5173 and the “Th-T assay signal, mean” value (column suffix _10, reading M8) was 0.5644. For the same compound, the “Th-T assay signal, mean” value (column suffix _10, reading M9) was 0.6382, the “Th-T assay signal, mean” value (column suffix _10, reading M10) was 0.6392 and the “Th-T assay signal, mean” value (column suffix _10, reading M11) was 0.7204. For the same compound, the “Th-T assay signal, mean” value (column suffix _10, reading M12) was 0.8506, the “Th-T assay signal, mean” value (column suffix _10, reading M13) was 1.108 and the “Th-T assay signal, mean” value (column suffix _10, reading M14) was 1.585. The “Th-T assay signal, mean” value (column suffix _10, reading M15) was 2.1202, the “Th-T assay signal, mean” value (column suffix _10, reading M16) was 2.635 and the “Th-T assay signal, mean” value (column suffix _10, reading M17) was 2.976. For the same compound, the “Th-T assay signal, mean” value (column suffix _10, reading M18) was 3.206, the “Fig. 7a Th-T reading, mean of three wells” value (shortened to “Fig. 7a Th-T reading, mean”) (column suffix _10, reading M85) was 3.354 and the “Fig. 7a Th-T reading, mean” value (column suffix _10, reading M86) was 3.35. For the same compound, the “Fig. 7a Th-T reading, mean” value (column suffix _10, reading M87) was 3.36, the “Fig. 7a Th-T reading, mean” value (column suffix _10, reading M88) was 3.344 and the “Fig. 7a Th-T reading, mean” value (column suffix _10, reading M89) was 3.359. The “Fig. 7a Th-T reading, mean” value (column suffix _10, reading M90) was 3.344, the “Fig. 7a Th-T reading, mean” value (column suffix _10, reading M91) was 3.334 and the “Fig. 7a Th-T reading, mean” value (column suffix _10, reading M92) was 3.329. The “Fig. 7a Th-T reading, mean” value (column suffix _10, reading M93) was 3.316, the “Fig. 7a Th-T reading, mean” value (column suffix _10, reading M94) was 3.328 and the “Fig. 7a Th-T reading, mean” value (column suffix _10, reading M95) was 3.309. The “Fig. 7a Th-T reading, mean” value (column suffix _10, reading M96) was 3.312, the “Fig. 7a Th-T reading, mean” value (column suffix _10, reading M97) was 3.295 and the “Fig. 7a Th-T reading, mean” value (column suffix _10, reading M98) was 3.318. The “Fig. 7a Th-T reading, mean” value (column suffix _10, reading M99) was 3.3, the “Fig. 7a Th-T reading, mean” value (column suffix _10, reading M100) was 3.294 and the “Fig. 7a Th-T reading, mean” value (column suffix _10, reading M101) was 3.313. For the same compound, the “Fig. 7a Th-T reading, mean” value (column suffix _10, reading M102) was 3.28, the “Fig. 7a Th-T reading, mean” value (column suffix _10, reading M103) was 3.294 and the “Fig. 7a Th-T reading, mean” value (column suffix _10, reading M104) was 3.29. The “Fig. 7a Th-T reading, mean” value (column suffix _10, reading M105) was 3.266, the “Fig. 7a Th-T reading, mean” value (column suffix _10, reading M106) was 3.268 and the “Th-T fluorescence … (Fig. 7a)” value (column suffix _20, measurement M19) was 3.146. For the same compound, the “Th-T fluorescence … (Fig. 7a)” value (column suffix _20, measurement M20) was 3.22, the “Th-T fluorescence … (Fig. 7a)” value (column suffix _20, measurement M21) was 3.265 and the “Th-T fluorescence … (Fig. 7a)” value (column suffix _20, measurement M22) was 3.294. For the same compound, the “Th-T fluorescence … (Fig. 7a)” value (column suffix _20, measurement M23) was 3.285, the “Th-T fluorescence … (Fig. 7a)” value (column suffix _20, measurement M24) was 3.3066 and the “Th-T fluorescence … (Fig. 7a)” value (column suffix _20, measurement M25) was 3.328. The “Th-T fluorescence … (Fig. 7a)” value (column suffix _20, measurement M26) was 3.367, the “Th-T fluorescence … (Fig. 7a)” value (column suffix _20, measurement M27) was 3.353 and the “Th-T fluorescence … (Fig. 7a)” value (column suffix _20, measurement M28) was 3.346. The “Th-T fluorescence … (Fig. 7a)” value (column suffix _20, measurement M29) was 3.34, the “Th-T fluorescence … (Fig. 7a)” value (column suffix _20, measurement M30) was 3.361 and the “Th-T assay signal, mean” value (column suffix _20, reading M1) was 0.2139. The “Th-T assay signal, mean” value (column suffix _20, reading M2) was 0.2391, the “Th-T assay signal, mean” value (column suffix _20, reading M3) was 0.2688 and the “Th-T assay signal, mean” value (column suffix _20, reading M4) was 0.2877. For the same compound, the “Th-T assay signal, mean” value (column suffix _20, reading M5) was 0.33, the “Th-T assay signal, mean” value (column suffix _20, reading M6) was 0.4061 and the “Th-T assay signal, mean” value (column suffix _20, reading M7) was 0.4716. The “Th-T assay signal, mean” value (column suffix _20, reading M8) was 0.5038, the “Th-T assay signal, mean” value (column suffix _20, reading M9) was 0.5302 and the “Th-T assay signal, mean” value (column suffix _20, reading M10) was 0.5653. For the same compound, the “Th-T assay signal, mean” value (column suffix _20, reading M11) was 0.6147, the “Th-T assay signal, mean” value (column suffix _20, reading M12) was 0.7691 and the “Th-T assay signal, mean” value (column suffix _20, reading M13) was 1.152. The “Th-T assay signal, mean” value (column suffix _20, reading M14) was 1.832, the “Th-T assay signal, mean” value (column suffix _20, reading M15) was 2.436 and the “Th-T assay signal, mean” value (column suffix _20, reading M16) was 2.813. For the same compound, the “Th-T assay signal, mean” value (column suffix _20, reading M17) was 2.993, the “Th-T assay signal, mean” value (column suffix _20, reading M18) was 3.081 and the “Fig. 7a Th-T reading, mean” value (column suffix _20, reading M85) was 3.286. The “Fig. 7a Th-T reading, mean” value (column suffix _20, reading M86) was 3.29, the “Fig. 7a Th-T reading, mean” value (column suffix _20, reading M87) was 3.2956 and the “Fig. 7a Th-T reading, mean” value (column suffix _20, reading M88) was 3.332. For the same compound, the “Fig. 7a Th-T reading, mean” value (column suffix _20, reading M89) was 3.367, the “Fig. 7a Th-T reading, mean” value (column suffix _20, reading M90) was 3.341 and the “Fig. 7a Th-T reading, mean” value (column suffix _20, reading M91) was 3.299. For the same compound, the “Fig. 7a Th-T reading, mean” value (column suffix _20, reading M92) was 3.303, the “Fig. 7a Th-T reading, mean” value (column suffix _20, reading M93) was 3.313 and the “Fig. 7a Th-T reading, mean” value (column suffix _20, reading M94) was 3.332. The “Fig. 7a Th-T reading, mean” value (column suffix _20, reading M95) was 3.309, the “Fig. 7a Th-T reading, mean” value (column suffix _20, reading M96) was 3.268 and the “Fig. 7a Th-T reading, mean” value (column suffix _20, reading M97) was 3.26. For the same compound, the “Fig. 7a Th-T reading, mean” value (column suffix _20, reading M98) was 3.269, the “Fig. 7a Th-T reading, mean” value (column suffix _20, reading M99) was 3.3 and the “Fig. 7a Th-T reading, mean” value (column suffix _20, reading M100) was 3.292.

Source: publication PMC7156458, “Synthetic biology based construction of biological activity-related library of fungal decalin-containing diterpenoid pyrones” (Nature Communications, 2020)
